# Experiments:
# Assay type in all cases: cell-based
# P. aeruginosa PAO1 = assay: Antibacterial activity in combination with minocycline (growth inhibition); conditions: Pseudomonas aeruginosa, PAO1, compound at 50 μM; minocycline 8 μg/mL; OD625 23 h minus 1 h; read-out: residual growth of P. aeruginosa PAO1 (% of uninhibited control) with minocycline
# How it was run: (§1)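 Test compound combined with fixed subinhibitory partner antibiotic: linezolid 128 μg/mL for either strain, minocycline 0.25 μg/mL (E. coli) or 8 μg/mL (P. aeruginosa), in caMHB shaken at 37 °C. Residual growth as % of inhibitor-free control, from OD625 at 23 h minus 1 h.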
# E. coli ATCC25922 [1] = assay: as above; conditions: Escherichia coli, minocycline 0.25 μg/mL, OD625 23 h minus 1 h, read-out: residual growth of E. coli ATCC25922 (% of uninhibited control) with minocycline; for activity at 50 µM: ATCC25922, compound at 50 μM; for activity at 25 µM: ATCC25922, compound at 25 μM
# How it was run: as §1
# E. coli ATCC25922 [2] = assay: Antibacterial activity in combination with linezolid (growth inhibition); conditions: Escherichia coli, ATCC25922, compound at 50 μM; linezolid 128 μg/mL; OD625 23 h minus 1 h; read-out: residual growth of E. coli ATCC25922 (% of uninhibited control) with linezolid
# Description: Antibacterial activity in combination with minocycline or with linezolid
# Inhibition of growth was measured with E. coli ATCC25922 and P. aeruginosa PAO1 in a 96-well plate format. Cation-adjusted Müller-Hinton broth (caMHB) was inoculated with an overnight culture and incubated at 37° C. on a shaker until OD625 reached 0.6 to 0.7. Density was adjusted to OD600=0.5 by addition of caMHB. 35 μL of the suspension were diluted to 35 mL with caMHB and supplemented with minocycline at the subinhibitory doses of 0.25 μg/mL for E. coli and 8 μg/mL for P. aeruginosa or with linezolid at the subinhibitory dose of 128 μg/mL for E. coli and P. aeruginosa. Each well contained 1 μL of test compound in 100 μL caMHB with minocycline or with linezolid.
# Plates were incubated at 37° C. on a plate shaker. OD625 was measured at 1 h, 6 h, and at 23 h.
# The difference between OD at 23 h and at 1 h was taken as measure for cell density and compared to controls without inhibitor (i.e. uninhibited control). Results were expressed as residual growth (% of uninhibited control). Enhancement of minocycline or linezolid activity caused reduced residual growth.
Structure (SMILES),activity at 50 µM (P. aeruginosa PAO1) [%],activity at 50 µM (E. coli ATCC25922 [1]) [%],activity at 25 µM (E. coli ATCC25922 [1]) [%],activity at 50 µM (E. coli ATCC25922 [2]) [%]
COc1cc(C#N)ccc1COc1cccc(CNCC2CNC2)c1 [Example 26],≤ 50,≤ 50,,
Clc1ccc(COc2cccc(CCNCC3CNC3)c2)cc1 [Example 28],≤ 50,,≤ 10,
Brc1ncccc1COc1cccc(CNCC2CNC2)c1 [Example 48],,,,≤ 50
CC(C)(c1ccccc1)c1ccc(OCCNCC2CNC2)cc1 [Example 50],≤ 50,≤ 50,,
CC(C)(C)c1ccc(COc2ccc(CNCC3CCNCC3)cc2)cc1 [Example 57],≤ 50,,≤ 10,
Clc1ccc(-c2cccc(CNCC3CCNC3)c2)c(Br)c1 (stereo not drawn) [Example 74],≤ 50,,≤ 10,
Clc1ccc(Oc2ccc(CNCC3CCNC3)cc2)c(Br)c1 (stereo not drawn) [Example 82],≤ 50,,≤ 10,
COC(=O)c1ccc(COc2ccc(CNCC3CNC3)cc2)c(Br)c1 [Example 87],≤ 50,≤ 50,,
Clc1ccc(Oc2ccccc2CNCC2CNC2)c(Br)c1 [Example 89],≤ 50,≤ 50,,
Clc1ccc(OCc2ccc(CNCC3CNC3)o2)c(Br)c1 [Example 93],≤ 50,,,
CS(=O)(=O)c1ccc(COc2cccc(CNCC3CNC3)c2)c(Cl)c1 [Example 102],≤ 50,,,
COCc1cc(CNCC2CNC2)cc(OCc2ccc(Cl)cc2Br)c1 [Example 124],≤ 50,,≤ 10,
FC(F)(F)c1cc(Cl)ccc1COc1cccc(CNCC2CNC2)c1 [Example 131],≤ 50,,≤ 10,
Clc1ccc(NCc2cccc(CNCC3CNC3)c2)c(Br)c1 [Example 170],≤ 50,,≤ 10,
"Clc1ccc(COCc2cccc(CNCC3CNC3)c2)c(Br)c1 [Example 173, N-(azetidin-3-ylmethyl)-1-[3-[(2-bromo-4-chloro-phenyl)methoxymethyl]phenyl]methanamine]",≤ 50,,≤ 10,
Clc1ccc(COc2cccc(CNCC3CNC3)c2)c(Cl)c1 [Example 177],≤ 50,,≤ 10,
Ic1ccc(COc2cccc(CNCC3CNC3)c2)cc1 [Example 206],≤ 50,,,
O=C(O)c1ccc(COc2cc(CNCC3CNC3)cc(OCc3ccc(Cl)cc3Br)c2)cc1 [Example 208],≤ 50,,,
Ic1cccc(COc2cccc(CNCC3CNC3)c2)c1 [Example 219],≤ 50,,≤ 10,
Brc1ccccc1COc1cccc(CNCC2CCNC2)c1 (stereo not drawn) [Example 220],≤ 50,,,
Ic1cccc(COc2cccc(CNCC3CCNC3)c2)c1 (stereo not drawn) [Example 221],≤ 50,,≤ 10,
CC(C)(C)c1ccc(COc2cccc(CNCC3CNC3)c2)cc1 [Example 222],≤ 50,,≤ 10,
CC(C)(C)c1ccc(COc2cccc(CNC3CCNCC3)c2)cc1 [Example 223],≤ 50,,≤ 10,
C=CCOc1cc(/C=C/c2cccc(OC)c2)cc(CNCC2CNC2)c1 [Example 276],≤ 50,,≤ 10,
CC(C)(C)c1ccc(COc2cc(CNCC3CNC3)cc(OCCN3CCOCC3)c2)cc1 [Example 277],≤ 50,,≤ 10,
C=CCOc1cc(/C=C/c2ccccc2OC)cc(CNCC2CNC2)c1 [Example 285],≤ 50,,≤ 10,
C[N+]1(C)CC(OCc2cc(CNCC3CNC3)cc(OCc3ccc(Cl)cc3Br)c2)CC1C(=O)O (stereo not drawn) [Example 288],≤ 50,≤ 50,,
N#Cc1ccc(/C=C/c2cccc(CNCC3CCNC3)c2)c(C(F)(F)F)c1 (stereo not drawn) [Example 314],≤ 50,,≤ 10,
C=CCOc1cc(/C=C/c2cnccc2C#N)cc(CNCC2CCNC2)c1 (stereo not drawn) [Example 316],≤ 50,,≤ 10,
C=CCOc1cc(/C=C/c2cccs2)cc(CNCC2CCNC2)c1 (stereo not drawn) [Example 319],≤ 50,,≤ 10,

# Reference: patent publication US10464896B2, “Efflux-pump inhibitors and therapeutic uses thereof” (Basilea Pharmaceutica International AG, priority 2015, dated 2019)
